Calls of active or inactive are those of the source. The rule behind the calls is not given here.
Legend:
[1] = molecular target: T1, von Hippel-Lindau disease tumor suppressor/Bromodomain-containing protein 4 (Homo sapiens) (UniProt O60885+P40337); test: PROTAC activity at BRD4/VHL in human J82 cells assessed as induction of BRD4 degradation up to 100 nM incubated for 24 hrs by Western blotting analysis; format: cell-based
[2] = Drug concentration in male BALB/c mouse plasma at 0.14 mmol/L, iv; format: ADME, cell-free
[3] = Drug concentration in male BALB/c mouse Tumor at 0.14 mmol/L, iv; format: ADME, tissue-based, Neoplasm; conditions: in vivo
[4] = molecular target: T1, von Hippel-Lindau disease tumor suppressor/Bromodomain-containing protein 4 (Homo sapiens); test: PROTAC activity at BRD4/VHL PSMA knockdown in human LNCaP cells assessed as induction of BRD4 degradation at 3 nM incubated for 12 hrs by Western blotting analysis; format: cell-based
[5] = molecular target: T1, von Hippel-Lindau disease tumor suppressor/Bromodomain-containing protein 4 (Homo sapiens); test: PROTAC activity at BRD4/VHL in HEK293 cells assessed as induction of BRD4 degradation up to 100 nM incubated for 24 hrs by Western blotting analysis; format: cell-based
[6] = Toxicity in male BALB/c mouse assessed as body weight loss at 0.47 mmol/L, iv administered every day for 21 days; format: organism-based; conditions: in vivo, 504 h, time 21 day
[7] = molecular target: T1, von Hippel-Lindau disease tumor suppressor/Bromodomain-containing protein 4 (Homo sapiens); test: PROTAC activity at BRD4/VHL in human DU-145 cells assessed as induction of BRD4 degradation up to 100 nM incubated for 24 hrs by Western blotting analysis; format: cell-based
[8] = Toxicity in male BALB/c mouse assessed as effect on lung weight at 0.47 mmol/L, iv administered every day for 21 days; format: organism-based; conditions: in vivo, 504 h, time 21 day
[9] = molecular target: T1, von Hippel-Lindau disease tumor suppressor/Bromodomain-containing protein 4 (Homo sapiens); test: PROTAC activity at BRD4/VHL in human LNCaP cells assessed as induction of BRD4 degradation at 10 nM incubated for 8 hrs in presence of MLN4924 by Western blotting analysis; format: cell-based
[10] = molecular target: T1, von Hippel-Lindau disease tumor suppressor/Bromodomain-containing protein 4 (Homo sapiens); test: PROTAC activity at BRD4/VHL in human LNCaP cells expressing PSMA assessed as induction of BRD4 degradation incubated for 24 hrs by Western blotting analysis; format: cell-based; conditions: dose <= 100.0 nM
HEK-293T = test: Cytotoxicity against HEK293T cells assessed as cell viability incubated for 72 hrs by CCK-8 assay; format: toxicity, cell-based; conditions: human
[11] = Toxicity in male BALB/c mouse assessed as effect on tumor weight at 0.47 mmol/L, iv administered every day for 21 days; format: organism-based; conditions: in vivo, 504 h, time 21 day
LNCaP = test: Antitumor activity against human LNCaP cells xenografted in BALB/c mouse assessed as tumor growth inhibition at 0.47 mmol/L, iv administered every day for 21 days; format: functional; conditions: 504 h, time 21 day, read-out: TGI
[12] = Toxicity in male BALB/c mouse assessed as effect on kidney weight at 0.47 mmol/L, iv administered every day for 21 days; format: organism-based; conditions: in vivo, 504 h, time 21 day
[13] = molecular target: T1, von Hippel-Lindau disease tumor suppressor/Bromodomain-containing protein 4 (Homo sapiens); test: PROTAC activity at BRD4/VHL in human LNCaP cells assessed as induction of BRD4 degradation at 10 nM incubated for 8 hrs in presence of VH032 by Western blotting analysis; format: cell-based
J82 = test: Cytotoxicity against human J82 cells assessed as cell viability incubated for 72 hrs by CCK-8 assay; format: functional, cell-based
[14] = molecular target: T1, von Hippel-Lindau disease tumor suppressor/Bromodomain-containing protein 4 (Homo sapiens); test: PROTAC activity at BRD4/VHL in human 22Rv1 cells expressing PSMA assessed as induction of BRD4 degradation incubated for 24 hrs by Western blotting analysis; format: cell-based; conditions: dose <= 100.0 nM
[15] = molecular target: T1, von Hippel-Lindau disease tumor suppressor/Bromodomain-containing protein 4 (Homo sapiens); test: PROTAC activity at BRD4/VHL in human LNCaP cells assessed as induction of BRD4 degradation at 10 nM incubated for 8 hrs in presence of MG132 by Western blotting analysis; format: cell-based
[16] = Half life in BALB/c mouse at 0.14 mmol/L, iv; format: ADME; conditions: in vivo
[17] = molecular target: T1, von Hippel-Lindau disease tumor suppressor/Bromodomain-containing protein 4 (Homo sapiens); test: PROTAC activity at BRD4/VHL in human LNCaP cells assessed as induction of BRD4 degradation at 3 nM incubated for 24 hrs in presence of filipin by Western blotting analysis; format: cell-based
[18] = Toxicity in male BALB/c mouse assessed as effect on heart weight at 0.47 mmol/L, iv administered every day for 21 days; format: organism-based; conditions: in vivo, 504 h, time 21 day
[19] = molecular target: T1, von Hippel-Lindau disease tumor suppressor/Bromodomain-containing protein 4 (Homo sapiens); test: PROTAC activity at BRD4/VHL in human VCaP cells expressing PSMA assessed as induction of BRD4 degradation incubated for 24 hrs by Western blotting analysis; format: cell-based; conditions: dose <= 100.0 nM
DU-145 = test: Cytotoxicity against human DU-145 cells assessed as cell viability incubated for 72 hrs by CCK-8 assay; format: functional, cell-based
[20] = Toxicity in male BALB/c mouse assessed as effect on spleen weight at 0.47 mmol/L, iv administered every day for 21 days; format: organism-based; conditions: in vivo, 504 h, time 21 day
[21] = Toxicity in male BALB/c mouse assessed as effect on liver weight at 0.47 mmol/L, iv administered every day for 21 days; format: organism-based; conditions: in vivo, 504 h, time 21 day

T1 sequence (P40337 whole entry, looked up, other chains not shown): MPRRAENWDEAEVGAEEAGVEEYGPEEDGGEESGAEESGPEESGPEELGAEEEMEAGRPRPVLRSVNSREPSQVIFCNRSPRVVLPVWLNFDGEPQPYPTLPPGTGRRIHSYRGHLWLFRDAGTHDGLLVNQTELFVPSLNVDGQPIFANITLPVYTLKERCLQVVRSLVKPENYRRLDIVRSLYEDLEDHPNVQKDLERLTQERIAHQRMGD

Cc1ncsc1-c1ccc([C@H](C)NC(=O)[C@@H]2C[C@@H](OC(=O)CCCc3cn(CCCNC(=O)[C@H](Cc4ccc(O)cc4)NC(=O)[C@H](Cc4ccccc4)NC(=O)CCC(=O)NCCCCCC(=O)N(CCCC[C@H](NC(=O)N[C@@H](CCC(=O)O)C(=O)O)C(=O)O)Cc4cccc(Cl)c4)nn3)CN2C(=O)[C@@H](NC(=O)COCCCOCCNC(=O)C[C@@H]2N=C(c3ccc(Cl)cc3)c3c(sc(C)c3C)-n3c(C)nnc32)C(C)(C)C)cc1
Activity [1]: inactive | Cp [2]: Active | Drug uptake [3]: Active | Activity [4]: Active | Activity [5]: inactive | Activity [6]: Non-toxic | Activity [7]: inactive | Activity [8]: Non-toxic | Activity [9]: Active | Activity [10]: Dose-dependent-effect | Activity (HEK-293T): Non-toxic | Activity [11]: Non-toxic | inhibition in vivo at 470 µM (LNCaP): 88.6% | Activity [12]: Non-toxic | Activity [13]: Active | Activity (J82): inactive | Activity [14]: Dose-dependent-effect | Activity [15]: Active | half-life [16]: 4.19 h | Activity [17]: Active | Activity [18]: Non-toxic | Activity [19]: Dose-dependent-effect | Activity (DU-145): inactive | Activity [20]: Non-toxic | Activity [21]: Non-toxic
